IC50 data for 14 compounds are collected here from patent publication US20120230951A1 (priority 2011, published 2012).

The test system of this assay is GT-1a pRLuc H771b 75 S/I subgenomic replicon cell line. The assay is described as follows: HCV GT-1a replicon luciferase reporter assay. Type of assay: cell-based. Conditions: Hepatitis C virus, GT1A, 72 h, read-out: GT-1a (IC50) (nM). From the text:
Determination of compounds HCV GT1b inhibitory replicon activity using the replicon luciferase reporter assay
The 2209-23 cell line was developed at Roche by stable transfection of the hepatoma cell line Huh-7 with a GT-1b Con1 subgenomic bicistronic replicon as previously described. Subgenomic replicon cell line was established in cured Huh7 cells, obtained from R. Bartenschlager (J. Virol. 2003 March; 77 (5):3007-19) The GT-1a H77 subgenomic replicon vector pRLuc H771b 75 S/I, was created by replacing the non structural region of the GT-1b Con1 subgenomic replicon by the one of the H77 strain, except for the first 75 amino acids of the NS3 protein that are from GT-1b Con1 strain. (J. Virol. 2001 77:5352-59) The GT-1a pRLuc H771b 75 S/I subgenomic replicon cell line was established in cured Huh7 cells, obtained from R. Bartenschlager. (J. Virol. 2003 March; 77 (5):3007-19)
All the subgenomic replicon cell lines were cultured in Dulbecco's Modified Eagle Medium (DMEM-Glutamax™-I; Invitrogen Cat #10569-010). The medium was supplemented with 10% Fetal Bovine Serum (Invitrogen Cat #10082-147), 1% penicillin/streptomycin (Mediatech Cat #30-002-CI) and 500 μg/ml of G418 (Mediatech Cat #30-234-CI). Cells were maintained at 37° C. in a humidified 5% CO2 atmosphere.
2209-23 cells were plated at a cell density of 5000 cells per well in 96 well plates (Becton Dickinson, Cat #35 3296). Cells were plated in 90 μl of Dulbecco's Modified Eagle Medium (DMEM-Glutamax™-I), (Invitrogen Cat #10569-010) medium was supplemented with 5% Fetal Bovine Serum (Invitrogen Cat #10082-147), 1% penicillin/streptomycin (Mediatech Cat #30-002-CI). The pRluc H771b 75 S/I cells were plated in 96-well plate at 3000 cells/well in DMEM-Glutamax™-I containing 5% FBS and 1% penicillin/streptomycin in 90 μl final volume. Cells were allowed to equilibrate for 24 hours at 37° C. and 5% CO2 at which time compounds were added. Compounds (or medium as a control) were added 24 hours post-plating in 3 fold dilutions at a final DMSO concentration of 1% in 10 ul volume. Renilla luciferase reporter signal was read 72 hours after addition of compounds using the Renilla Luciferase Assay System (Promega, cat #E2820). EC50 values were defined as the compound concentration at which a 50% reduction in the levels of renilla luciferase reporter was observed as compared to control samples in the absence of compound and was determined by non-linear fitting of compound dose-response data. The EC50 was approximated if maximum percentage inhibition was less than 90% and more than 70%.
Take `COC(=O)N[C@H]1CCc2cccc3c2N(C1=O)[C@H](c1ncc(-c2ccc(-c4ccc(-c5cnc([C@@H]6CCCN6C(=O)[C@@H](NC(=O)OC)[C@@H](C)O)[nH]5)cc4)cc2)[nH]1)C3` (stereo in doubt) [Compound I-50, {(2S,5S)-2-[5-(4-{2-[(S)-1-((S)-3-Hydroxy-2-methoxycarbonylamino-butyl)-pyrolidin-2-yl]-3H-imidazol-4-yl}-biphenyl-4-yl)-1H-imidazol-2-yl]-4-oxo-1,2,4,5,6,7-hexahydro-azepino[3,2,1-hi]indol-5-yl}-carbamic acid methyl ester]: the IC50 is 6.62 nM.

For `COC(=O)N[C@H]1CCc2cccc3c2N(C1=O)[C@H](c1ncc(-c2cnc(-c4ccc5cc(-c6cnc([C@@H]7CCCN7C(=O)[C@@H](NC(=O)OC)C(C)C)[nH]6)ccc5c4)nc2)[nH]1)C3` [Compound I-17, ((2S,5S)-2-{5-[2-(6-{2-[(S)-1-((S)-2-Methoxycarbonylamino-3-methyl-butyryl)-pyrrolidin-2-yl]-3H-imidazol-4-yl}-naphthalen-2-yl)-pyrimidin-5-yl]-1H-imidazol-2-yl}-4-oxo-1,2,4,5,6,7-hexahydro-azepino[3,2,1-hi]indol-5-yl)-carbamic acid methyl ester], the IC50 amounted to 3.2 nM. Regarding `COC(=O)NC(C(=O)N1CCCC1c1ncc(-c2ccc(-c3ccc(-c4cnc([C@@H]5Cc6cc(C#N)cc7c6N5C(=O)[C@@H](NC(=O)OC)CC7)[nH]4)cc3)cc2)[nH]1)C(C)C` (stereo in doubt) [Compound I-26, {(2S,5S)-9-Cyano-2-[5-(4′-{2-[(R)-1-((R)-2-methoxycarbonylamino-3-methyl-butyryl)-pyrrolidin-2-yl]-3H-imidazol-4-yl}-biphenyl-4-yl)-1H-imidazol-2-yl]-4-oxo-1,2,4,5,6,7-hexahydro-azepino[3,2,1-hi]indol-5-yl}-carbamic acid methyl ester], the concentration for half-maximal inhibition (IC50) stood at 7.71 nM. The value for `COC(=O)N[C@H]1CCc2cccc3c2N(C1=O)[C@H](c1ncc(-c2cnc(-c4ccc(-c5cnc([C@@H]6CC(F)(F)CN6C(=O)[C@@H](NC(=O)OC)C(C)C)[nH]5)cc4)nc2)[nH]1)C3` [Compound I-16, ((2S,5S)-2-{5-[2-(4-{2-[(S)-1-((S)-2-Methoxycarbonylamino-3-methyl-butyryl)-4,4-difluoro-pyrrolidin-2-yl]-3H-imidazol-4-yl}-phenyl)-pyrimidin-5-yl]-1H-imidazol-2-yl}-4-oxo-1,2,4,5,6,7-hexahydro-azepino[3,2,1-hi]indol-5-yl)-carbamic acid methyl ester] was 29.2 nM; that for `COC(=O)N[C@H]1CCc2cccc3c2N(C1=O)[C@H](c1nc2ccc(-c4ccc(-c5ccc(-c6cnc([C@@H]7CC(F)(F)CN7C(=O)[C@@H](NC(=O)OC)C(C)C)[nH]6)cc5)nc4)cc2[nH]1)C3` [Compound I-13, ((2S,5S)-2-{6-[6-(4-{2-[(S)-1-((S)-2-Methoxycarbonylamino-3-methyl-butyryl)-4,4-difluoro-pyrrolidin-2-yl]-3H-imidazol-4-yl}-phenyl)-pyridin-3-yl]-1H-benzoimidazol-2-yl}-4-oxo-1,2,4,5,6,7-hexahydro-azepino[3,2,1-hi]indol-5-yl)-carbamic acid methyl ester] was 41.8 nM; that for `COC(=O)N[C@H]1CCc2cccc3c2N(C1=O)[C@H](c1ncc(-c2ccc(-c4ccc(-c5ccc6nc([C@@H]7CC(F)(F)CN7C(=O)[C@@H](NC(=O)OC)C(C)C)[nH]c6c5)cc4)cc2)[nH]1)C3` [Compound I-4, {(2S,5S)-2-[5-(4′-{2-[(S)-4,4-Difluoro-1-((S)-2-methoxycarbonylamino-3-methyl-butyryl)-pyrrolidin-2-yl]-3H-benzoimidazol-5-yl}-biphenyl-4-yl)-1H-imidazol-2-yl]-4-oxo-1,2,4,5,6,7-hexahydro-azepino[3,2,1-hi]indol-5-yl}-carbamic acid methyl ester] was 4.11 nM. On to `COC(=O)N[C@H]1CCc2cccc3c2N(C1=O)[C@H](c1ncc(-c2ccc(-c4ccc5nc([C@@H]6CCCN6C(=O)[C@@H](NC(=O)OC)C(C)C)[nH]c5c4)cc2)[nH]1)C3` [Compound I-3, {(2S,5S)-2-[5-(4-{2-[(S)-1-((S)-2-Methoxycarbonylamino-3-methyl-butyryl)-pyrrolidin-2-yl]-3H-benzoimidazol-5-yl}-phenyl)-1H-imidazol-2-yl]-4-oxo-1,2,4,5,6,7-hexahydro-azepino[3,2,1-hi]indol-5-yl}-carbamic acid methyl ester], for which the IC50 was 660 nM. Regarding `COC(=O)N[C@@H](C)C(=O)N1CCC[C@H]1c1ncc(-c2ccc(-c3ccc(-c4cnc([C@@H]5Cc6cccc7c6N5C(=O)[C@@H](NC(=O)OC)CC7)[nH]4)cc3)cc2)[nH]1` [Compound I-49, {(2S,5S)-2-[5-(4-{2-[(S)-1-((S)-2-Methoxycarbonylamino-propionyl)-pyrolidin-2-yl]-3H-imidazol-4-yl}-biphenyl-4-yl)-1H-imidazol-2-yl]-4-oxo-1,2,4,5,6,7-hexahydro-azepino[3,2,1-hi]indol-5-yl}-carbamic acid methyl ester], the IC50 is 3.91 nM. On to `COC(=O)NC(C(=O)N1CCC[C@H]1c1ncc(-c2ccc(-c3ccc(-c4cnc([C@@H]5Cc6cccc7c6N5C(=O)[C@@H](NC(=O)OC)CC7)[nH]4)cc3)cc2)[nH]1)C1CCOCC1` (some centres unmarked) [Compound I-48], for which the IC50 amounted to 2.83 nM. Take `CC[C@H](C)[C@H](NC(=O)OC)C(=O)N1CC(F)(F)C[C@H]1c1ncc(-c2cnc(-c3ccc(-c4cnc([C@@H]5Cc6cccc7c6N5C(=O)[C@@H](NC(=O)OC)CC7)[nH]4)cc3)nc2)[nH]1` [Compound I-58, ((1S,2S)-1-{(S)-4,4-Difluoro-2-[5-(2-{4-[2-((2S,5S)-5-methoxycarbonylamino-4-oxo-1,2,4,5,6,7-hexahydro-azepino[3,2,1-hi]indol-2-yl)-1H-imidazol-4-yl]-phenyl}-pyrimidin-5-yl)-1H-imidazol-2-yl]-pyrrolidine-1-carbonyl}-2-methyl-butyl)-carbamic acid methyl ester]: the IC50 came out at 26.1 nM. In the case of `COC(=O)NC(C(=O)N1CCOC[C@H]1c1ncc(-c2ccc(-c3ccc(-c4cnc([C@@H]5Cc6cccc7c6N5C(=O)[C@@H](NC(=O)OC)CC7)[nH]4)cc3)cc2)[nH]1)c1ccccc1` (stereo in doubt) [Compound I-63, {(2S,5S)-2-[5-(4′-{2-[(R)-4-((S)-2-Methoxycarbonylamino-2-phenyl-acetyl)-morpholin-3-yl]-3H-imidazol-4-yl}-biphenyl-4-yl)-1H-imidazol-2-yl]-4-oxo-1,2,4,5,6,7-hexahydro-azepino[3,2,1-hi]indol-5-yl}-carbamic acid methyl ester], the IC50 is 7.3 nM. On to `COC(=O)N[C@H]1CCc2cccc3c2N(C1=O)[C@H](c1ncc(-c2ccc(-c4ccc(-c5ccc6nc([C@@H]7CCCN7C(=O)[C@@H](NC(=O)OC)C(C)C)[nH]c6c5)nc4)cc2)[nH]1)C3` [Compound I-7, ((2S,5S)-2-{5-[4-(6-{2-[(S)-1-((S)-2-Methoxycarbonylamino-3-methyl-butyryl)-pyrrolidin-2-yl]-3H-benzoimidazol-5-yl}-pyridin-3-yl)-phenyl]-1H-imidazol-2-yl}-4-oxo-1,2,4,5,6,7-hexahydro-azepino[3,2,1-hi]indol-5-yl)-carbamic acid methyl ester], for which the 50% inhibitory concentration (IC50) is 32.2 nM. With `COC(=O)N[C@H]1CCc2cccc3c2N(C1=O)[C@H](c1ncc(-c2ccc(-c4ncc(-c5cnc([C@@H]6CC(F)(F)CN6C(=O)[C@@H](NC(=O)OC)C(C)C)[nH]5)cn4)cc2)[nH]1)C3` [Compound I-57, ((2S,5S)-2-{4-[4-(5-{2-[(S)-4,4-Difluoro-1-(2-methoxycarbonylamino-3-methyl-butyryl)-pyrrolidin-2-yl]-3H-imidazol-4-yl}-pyrimidin-2-yl)-phenyl]-1H-imidazol-2-yl}-4-oxo-1,2,4,5,6,7-hexahydro-azepino[3,2,1-hi]indol-5-yl)-carbamic acid methyl ester], the IC50 was 17.1 nM. Take `COC(=O)N[C@H]1CCc2cccc3c2N(C1=O)[C@H](c1ncc(-c2ccc(-c4ccc(-c5[nH]c([C@@H]6CC(F)(F)CN6C(=O)[C@@H](NC(=O)OC)C(C)C)nc5Cl)cc4)cc2)[nH]1)C3` [Compound I-32, {(2S,5S)-2-[5-(4′-{5-Chloro-2-[(S)-4,4-difluoro-1-((S)-2-methoxycarbonylamino-3-methyl-butyryl)-pyrrolidin-2-yl]-3H-imidazol-4yl}-biphenyl-4-yl)-1H-imidazol-2-yl]-4-oxo-1,2,4,5,6,7-hexahydro-azepino[3,2,1-hi]indol-5-yl}-carbamic acid methyl ester]: the IC50 came out at 5.78 nM.

In general, IC50 refers to the concentration at which inhibition is half-maximal.
